Series [1] concerns the target Epidermal growth factor receptor (Homo sapiens, UniProt P00533, L858R/T790M). As to the kind of experiment: Inhibition of EGFR L858R/T790M (unknown origin) using Poly (Glu, Tyr) 4:1 as substrate measured after 1 hr by ELISA.
Series [2] concerns the target T1, von Hippel-Lindau disease tumor suppressor/Epidermal growth factor receptor (Homo sapiens, UniProt P00533+P40337). As to the kind of experiment: Protac activity at VHL/EGFR in human A431 cells assessed as reduction in ERK phosphorylation up to 10000 nM measured after 16 hrs by Western blot analysis. Type of series: cell-based. To be noted: A-431, dose nM <=10000, time 16.0 hrs.

For series [3], the target named is T1, von Hippel-Lindau disease tumor suppressor/Epidermal growth factor receptor. As to the kind of experiment: Protac activity at VHL/EGFR in human A431 cells assessed as EGFR degradation up to 10000 nM measured after 16 hrs by Western blot analysis. The series is classed as cell-based. The note with it: A-431, dose nM <=10000, time 16.0 hrs.
Series [4] can be described thus: Effect on AKT level in human NCI-H1975 cells up to 10000 nM treated 8 hrs post serum starvation measured after 16 hrs by Western blot analysis. The note with it: nci-h1975, 16 h. Type of series: ADME, cell-based.
In a further series the test system is NCI-H1975. As to the kind of experiment: Antiproliferative activity against human NCI-H1975 cells measured after 72 hrs by CCK8 assay. Type of series: functional, cell-based. To be noted: NCI-H1975, 72 h. Background: Tetrazolium dyes change colour on reduction, which living cells bring about.
In series [5] the test system is von Hippel-Lindau disease tumor suppressor/Epidermal growth factor receptor (Homo sapiens), P00533+P40337 [L858R,T790M]. As to the kind of experiment: Protac activity at VHL/EGFR L858R/T790M mutant in human NCI-H1975 cells assessed as reduction in EGFR autophosphorylation measured after 16 hrs by Western blot analysis. Type of series: cell-based. Background: Immunoblotting shows a protein as a band on a membrane.

Series [6] has the same test system. As to the kind of experiment: Protac activity at VHL/EGFR L858R/T790M mutant in human NCI-H1975 cells assessed as induction of EGFR degradation at 100 nM in presence of EGFR L858R/T790M mutant ligand XTF-262 by Western blot analysis. Type of series: cell-based.
The target of series [7] is von Hippel-Lindau disease tumor suppressor/Epidermal growth factor receptor (Homo sapiens, UniProt P00533+P40337, T790M/L858R). As to the kind of experiment: Protac activity at VHL/EGFR L858R/T790M mutant in human NCI-H1975 cells assessed as EGFR degradation by Western blot analysis. Type of series: cell-based.
The test system of series [8] is von Hippel-Lindau disease tumor suppressor/Epidermal growth factor receptor (Homo sapiens), P00533+P40337 [L858R,T790M]. As to the kind of experiment: Protac activity at VHL/EGFR L858R/T790M mutant in human NCI-H1975 cells assessed as induction of EGFR degradation at 100 nM in presence of EGFR L858R/T790M mutant ligand osimertinib by Western blot analysis. The series is classed as cell-based.

For series [9] the test system is unchanged. As to the kind of experiment: Protac activity at VHL/EGFR L858R/T790M mutant in human NCI-H1975 cells assessed as reduction in ERK phosphorylation measured after 16 hrs by Western blot analysis. The series is classed as cell-based.
For series [10] the test system is unchanged. As to the kind of experiment: Protac activity at VHL/EGFR L858R/T790M mutant in human NCI-H1975 cells assessed as induction of EGFR degradation at 10 to 100 nM measured after 12 hrs in presence of proteasome inhibitor MG132 by Western blot analysis. The series is classed as cell-based. To be noted: dose 10-100 nM.
For series [11], the target named is T1, von Hippel-Lindau disease tumor suppressor/Epidermal growth factor receptor. As to the kind of experiment: Protac activity at VHL/EGFR in human A431 cells assessed as EGFR degradation by Western blot analysis. Type of series: cell-based. The note with it: a-431.
Series [12] deals with von Hippel-Lindau disease tumor suppressor/Epidermal growth factor receptor (Homo sapiens), P00533+P40337 [L858R,T790M]. As to the kind of experiment: Protac activity at VHL/EGFR L858R/T790M mutant in human NCI-H1975 cells assessed as induction of EGFR degradation at 200 nM measured after 12 hrs by Western blot analysis relative to control. Type of series: cell-based.
The test system is the same in series [13]. As to the kind of experiment: Protac activity at VHL/EGFR L858R/T790M mutant in human NCI-H1975 cells assessed as EGFR degradation measured after 16 hrs by Western blot analysis. The series is classed as cell-based.
For series [14] the test system is unchanged. As to the kind of experiment: Protac activity at VHL/EGFR L858R/T790M mutant in human NCI-H1975 cells assessed as induction of EGFR degradation at 100 nM in presence of VHL ligand (S,R,S)-AHPC osimertinib by Western blot analysis. The series is classed as cell-based.
Series [15] has the same test system. As to the kind of experiment: Protac activity at VHL/EGFR L858R/T790M mutant in human NCI-H1975 cells assessed as induction of EGFR degradation at 200 nM measured after 6 hrs by Western blot analysis relative to control. The series is classed as cell-based.
Series [16] is described as follows: Effect on ERK level in human NCI-H1975 cells up to 10000 nM treated 8 hrs post serum starvation measured after 16 hrs by Western blot analysis. Type of series: ADME, cell-based. To be noted: nci-h1975, 16 h.
Series [17] deals with Epidermal growth factor receptor (Homo sapiens, UniProt P00533). As to the kind of experiment: Inhibition of wild-type EGFR (unknown origin) using Poly (Glu, Tyr) 4:1 as substrate measured after 1 hr by ELISA.
In series [18] the target is T1, von Hippel-Lindau disease tumor suppressor/Epidermal growth factor receptor. As to the kind of experiment: Protac activity at VHL/EGFR in human A431 cells assessed as reduction in AKT phosphorylation up to 10000 nM measured after 16 hrs by Western blot analysis. Type of series: cell-based. To be noted: A-431, dose nM <=10000, time 16.0 hrs.
In series [19] the test system is von Hippel-Lindau disease tumor suppressor/Epidermal growth factor receptor (Homo sapiens), P00533+P40337 [L858R,T790M]. As to the kind of experiment: Protac activity at VHL/EGFR L858R/T790M mutant in human NCI-H1975 cells assessed as reduction in ERK phosphorylation at >2000 nM measured after 16 hrs by Western blot analysis. Type of series: cell-based. To be noted: dose nM >2000, time 16.0 hrs.

Series [20] has the same test system. As to the kind of experiment: Protac activity at VHL/EGFR L858R/T790M mutant in human NCI-H1975 cells assessed as reduction in AKT phosphorylation measured after 16 hrs by Western blot analysis. The series is classed as cell-based.
For series [21] the test system is unchanged. As to the kind of experiment: Protac activity at VHL/EGFR L858R/T790M mutant in human NCI-H1975 cells assessed as reduction in AKT phosphorylation at >2000 nM measured after 16 hrs by Western blot analysis. Type of series: cell-based. The note with it: dose nM >2000, time 16.0 hrs.
Series [22] shares this test system. As to the kind of experiment: Protac activity at VHL/EGFR L858R/T790M mutant in human NCI-H1975 cells assessed as EGFR degradation at >2000 nM measured after 16 hrs by Western blot analysis. Type of series: cell-based. The note with it: dose nM >2000, time 16.0 hrs.
Series [23] shares this test system. As to the kind of experiment: Protac activity at VHL/EGFR L858R/T790M mutant in human NCI-H1975 cells assessed as induction of EGFR degradation at 200 nM measured after 24 hrs by Western blot analysis. The series is classed as cell-based.
Series [24] has the same test system. As to the kind of experiment: Protac activity at VHL/EGFR L858R/T790M mutant in human NCI-H1975 cells assessed as induction of EGFR degradation at 10 to 100 nM measured after 1 hr in presence of protein synthesis inhibitor cycloheximide by Western blot analysis. The series is classed as cell-based. The note with it: dose 10-100 nM.
The target in series [25] is E3 ubiquitin-protein ligase Mdm2/Epidermal growth factor receptor (Homo sapiens, UniProt Q00987+P00533, T790M/L858M). As to the kind of experiment: (§1) Protac activity at MDM2/EGFR L858R/T790M mutant in human NCI-H1975 cells assessed as EGFR degradation by Western blot analysis. Type of series: cell-based.
Series [26] addresses E3 ubiquitin-protein ligase Mdm2/Epidermal growth factor receptor (Homo sapiens, UniProt Q00987+P00533). As to the kind of experiment: Protac activity at MDM2/EGFR in human A431 cells assessed as EGFR degradation by Western blot analysis. Type of series: cell-based. The note with it: a-431.
The target of series [27] is Protein cereblon/Epidermal growth factor receptor (Homo sapiens, UniProt P00533+Q96SW2). As to the kind of experiment: Protac activity at CRBN/EGFR in human A431 cells assessed as EGFR degradation by Western blot analysis. The series is classed as cell-based. To be noted: a-431.
Series [28] concerns E3 ubiquitin-protein ligase Mdm2/Epidermal growth factor receptor (Homo sapiens), Q00987+P00533 [T790M,L858M]. The series is described as §1. Type of series: cell-based.

Calls of active or inactive are those of the source. The rule behind the calls is not given here.

Turning to `C=CC(=O)Nc1cccc(-n2c(=O)cc(C)c3cnc(Nc4ccc(N5CCN(CCCCCC(=O)N[C@H](C(=O)N6C[C@H](O)C[C@H]6C(=O)NCc6ccc(-c7scnc7C)cc6)C(C)(C)C)CC5)cc4OC)nc32)c1`, the IC50 in series [1] was 19.3 nM; in the series with NCI-H1975 it was 506 nM; in series [17], more than 1000 nM. In addition, the result in series [2], in series [3], in series [6], in series [8], in series [10] and in series [14] was inactive. Besides, the outcome in series [18], in [19], in series [21] and in [23] was inactive. The Activity entry is “Non-Toxic” in series [4]; “Dose-dependent effect” in [5]; “Dose-dependent effect” in [9]; 89% in series [12]; “Dose-dependent effect” in series [13]; 63% in series [15]. The results for the Activity entry in series [16] and in series [20] were “Non-Toxic” and “Dose-dependent effect”, respectively. Besides, the DC50 in series [7] was 5.9 nM; in [11], more than 2000 nM. For the same compound, the result in series [22] and in series [24] was Active.

Regarding `C=CC(=O)Nc1cccc(-n2c(=O)cc(C)c3cnc(Nc4ccc(N5CCN(C(=O)CCCCCCCNC(=O)c6ccc(NC(=O)[C@@H]7N[C@@H](CC(C)(C)C)[C@](C#N)(c8ccc(Cl)cc8F)[C@H]7c7cccc(Cl)c7F)c(OC)c6)CC5)cc4OC)nc32)c1`, the values for the DC50 in series [25] and in series [26] were 253 nM and more than 2000 nM, respectively.

Turning to `C=CC(=O)Nc1cccc(-n2c(=O)cc(C)c3cnc(Nc4ccc(N5CCN(CCCC(=O)N[C@H](C(=O)N6C[C@H](O)C[C@H]6C(=O)NCc6ccc(-c7scnc7C)cc6)C(C)(C)C)CC5)cc4OC)nc32)c1`, the DC50 in series [11] is more than 2000 nM.

`C=CC(=O)Nc1cccc(-n2c(=O)cc(C)c3cnc(Nc4ccc(N5CCN(C(=O)CCCCCCCCCCC(=O)Nc6cccc7c6C(=O)N(C6CCC(=O)NC6=O)C7=O)CC5)cc4OC)nc32)c1` (stereo not drawn): the DC50 in [27] was more than 2000 nM.

As for `C=CC(=O)Nc1cccc(-n2c(=O)cc(C)c3cnc(Nc4ccc(N5CCN(CCCCCCCCCC(=O)N[C@H](C(=O)N6C[C@H](O)C[C@H]6C(=O)NCc6ccc(-c7scnc7C)cc6)C(C)(C)C)CC5)cc4OC)nc32)c1`, the values for the DC50 in series [7] and in series [11] were 132 nM and more than 2000 nM, respectively.

Take `C=CC(=O)Nc1cccc(-n2c(=O)cc(C)c3cnc(Nc4ccc(N5CCN(C(=O)CCCCCCC(=O)N[C@H](C(=O)N6C[C@H](O)C[C@H]6C(=O)NCc6ccc(-c7scnc7C)cc6)C(C)(C)C)CC5)cc4OC)nc32)c1`: the DC50 is 235 nM in series [7] and more than 2000 nM in [11].

As to `C=CC(=O)Nc1cccc(-n2c(=O)cc(C)c3cnc(Nc4ccc(N5CCN(C(=O)CCCCCNC(=O)c6ccc(NC(=O)[C@@H]7N[C@@H](CC(C)(C)C)[C@](C#N)(c8ccc(Cl)cc8F)[C@H]7c7cccc(Cl)c7F)c(OC)c6)CC5)cc4OC)nc32)c1`, the DC50 in series [25] was 77 nM; in [26] it was more than 2000 nM.

Consider `C=CC(=O)Nc1cccc(-n2c(=O)cc(C)c3cnc(Nc4ccc(N5CCN(C(=O)CCCCCCCCCCCNC(=O)c6ccc(NC(=O)[C@@H]7N[C@@H](CC(C)(C)C)[C@](C#N)(c8ccc(Cl)cc8F)[C@H]7c7cccc(Cl)c7F)c(OC)c6)CC5)cc4OC)nc32)c1`, for which the Activity result in [28] was “Dose-dependent effect”. For the same compound, the 50% degradation concentration (DC50) in series [25] was 264 nM; in series [26], more than 2000 nM.

As a reminder, the IC50 is the concentration needed to halve the response being measured. One may read the DC50 as the concentration at which degradation of the target reaches its halfway point.

These data come from ChEMBL document CHEMBL4680227, “Design and synthesis of selective degraders of EGFR mutant” (Eur J Med Chem, 2020).
